Assay results from PubChem BioAssay AID274 (DTP/NCI, 2004).
Where “and” joins values, the source holds several entries; their conditions need not be identical. Identical values can stand only once. Inconclusive results and toxic doses are left out. Peptide text beside a SMILES is read from it. * marks the point of attachment. Trt = c1ccc(C(c2ccccc2)(c2ccccc2)*)cc1; Cbz = O=C(OCc1ccccc1)*; Bn = c1ccc(C*)cc1; βAla = NCCC(=O)O

System: BDF1 mice, Lewis lung carcinoma iv, survival T/C
Assay: NCI In Vivo Anticancer Drug Screen. Data for tumor model Lewis Lung Carcinoma (intravenous) in B6D2F1 (BDF1) mice
Conditions: endpoint: median survival time, higher = longer survival
Description: The antitumor activity of compounds was measured in mice bearing transplantable tumors. Survival or tumor size were measured and the results are expressed as the measurement made in the treated group (T) divided by the measurement made in the vehicle treated control group (C). The tumor model used in this assay is Lewis Lung Carcinoma (intravenous) in B6D2F1 (BDF1) mice

[1] = dose: 25.0 mg/kg/injection, schedule: Q01DX009 (ip), vehicle: saline with Tween-80
[2] = dose: 50.0 mg/kg/injection, schedule: Q01DX009 (ip), vehicle: saline with Tween-80
[3] = dose: 100.0 mg/kg/injection, schedule: Q01DX009 (ip), vehicle: saline with Tween-80
[4] = dose: 12.5 mg/kg/injection, schedule: Q01DX009 (ip), vehicle: Klucel (hydroxypropylcellulose) (HPC)
[5] = dose: 25.0 mg/kg/injection, schedule: Q01DX009 (ip), vehicle: Klucel (hydroxypropylcellulose) (HPC)
[6] = dose: 50.0 mg/kg/injection, schedule: Q01DX009 (ip), vehicle: Klucel (hydroxypropylcellulose) (HPC)
[7] = dose: 100.0 mg/kg/injection, schedule: Q01DX009 (ip), vehicle: Klucel (hydroxypropylcellulose) (HPC)
[8] = dose: 200.0 mg/kg/injection, schedule: Q01DX009 (ip), vehicle: Klucel (hydroxypropylcellulose) (HPC)
[9] = dose: 12.5 mg/kg/injection, schedule: Q01DX009 (ip), vehicle: saline
[10] = dose: 50.0 mg/kg/injection, schedule: Q01DX009 (ip), vehicle: saline
[11] = dose: 100.0 mg/kg/injection, schedule: Q01DX009 (ip), vehicle: saline
[12] = dose: 25.0 mg/kg/injection, schedule: Q01DX009 (ip), vehicle: saline
[13] = dose: 3.12 mg/kg/injection, schedule: Q01DX009 (ip), vehicle: saline with Tween-80
[14] = dose: 6.25 mg/kg/injection, schedule: Q01DX009 (ip), vehicle: saline with Tween-80
[15] = dose: 12.5 mg/kg/injection, schedule: Q01DX009 (ip), vehicle: saline with Tween-80

`COc1cccc2c1C(=O)c1c(O)c3c(c(O)c1C2=O)C[C@@](O)(C(=O)CO)C[C@@H]3OC1CC(N)C(O)C(C)O1` (some centres not stated) was tested, and the T/C (dose: 0.12 mg/kg/injection, schedule: Q01DX009 (ip), vehicle: saline) was 97 % of control, the T/C (dose: 0.25 mg/kg/injection, schedule: Q01DX009 (ip), vehicle: saline) was 99 % of control and 110 % of control and 90 % of control and the T/C (dose: 0.5 mg/kg/injection, schedule: Q01DX009 (ip), vehicle: saline) was 99 % of control and 106 % of control and 113 % of control. For the same compound, the T/C (dose: 0.5 mg/kg/injection, schedule: Q04DX003 (ip), vehicle: saline) was 100 % of control, the T/C (dose: 0.88 mg/kg/injection, schedule: Q01DX009 (ip), vehicle: saline) was 107 % of control and the T/C (dose: 1.0 mg/kg/injection, schedule: Q01DX009 (ip), vehicle: saline) was 100 % of control and 111 % of control and 280 % of control. For the same compound, the T/C (dose: 1.0 mg/kg/injection, schedule: Q04DX003 (ip), vehicle: saline) was 92 % of control and 95 % of control, the T/C (dose: 1.26 mg/kg/injection, schedule: Q01DX009 (ip), vehicle: saline) was 121 % of control and the T/C (dose: 1.92 mg/kg/injection, schedule: Q04DX003 (ip), vehicle: saline) was 111 % of control. For the same compound, the T/C (dose: 2.0 mg/kg/injection, schedule: Q01DX001 (ip), vehicle: saline) was 112 % of control and 122 % of control, the T/C (dose: 2.0 mg/kg/injection, schedule: Q01DX009 (ip), vehicle: saline) was 112 % of control and 115 % of control and the T/C (dose: 2.0 mg/kg/injection, schedule: Q04DX003 (ip), vehicle: saline) was 96 % of control and 110 % of control. The T/C (dose: 2.57 mg/kg/injection, schedule: Q01DX009 (ip), vehicle: saline) was 197 % of control, the T/C (dose: 3.6 mg/kg/injection, schedule: Q01DX001 (im), vehicle: water) was 113 % of control and the T/C (dose: 3.9 mg/kg/injection, schedule: Q04DX003 (ip), vehicle: saline) was 225 % of control. The T/C (dose: 4.0 mg/kg/injection, schedule: Q01DX001 (ip), vehicle: saline) was 114 % of control, the T/C (dose: 4.0 mg/kg/injection, schedule: Q04DX003 (ip), vehicle: saline) was 101 % of control and 105 % of control and the T/C (dose: 4.8 mg/kg/injection, schedule: Q01DX001 (iv), vehicle: saline) was 114 % of control and 115 % of control and 123 % of control. The T/C (dose: 5.6 mg/kg/injection, schedule: Q04DX003 (ip), vehicle: saline) was 253 % of control, the T/C (dose: 6.0 mg/kg/injection, schedule: Q01DX001 (im), vehicle: water) was 101 % of control and the T/C (dose: 6.86 mg/kg/injection, schedule: Q01DX001 (iv), vehicle: saline) was 151 % of control. For the same compound, the T/C (dose: 8.0 mg/kg/injection, schedule: Q01DX001 (ip), vehicle: saline) was 154 % of control and 169 % of control, the T/C (dose: 8.0 mg/kg/injection, schedule: Q04DX003 (ip), vehicle: saline) was 105 % of control and the T/C (dose: 9.8 mg/kg/injection, schedule: Q01DX001 (iv), vehicle: saline) was 195 % of control. For the same compound, the T/C (dose: 14.0 mg/kg/injection, schedule: Q01DX001 (iv), vehicle: saline) was 175 % of control and 333 % of control.

For `ClCc1ccc2ccccc2n1`, the T/C [1] was 100 % of control, the T/C [2] was 92 % of control and the T/C [3] was 119 % of control.

`COc1cccc2c1C(=O)c1c(O)c3c(c(O)c1C2=O)CC(O)(/C(C)=N/NC(=O)CCC(=O)N/N=C(\C)C1(O)Cc2c(O)c4c(c(O)c2C(OC2CC(N)C(O)C(C)O2)C1)C(=O)c1c(OC)cccc1C4=O)CC3OC1CC(N)C(O)C(C)O1` (configuration not stated) was tested, and the T/C (dose: 1.5 mg/kg/injection, schedule: Q01DX009 (ip), vehicle: water) was 96 % of control, the T/C (dose: 3.0 mg/kg/injection, schedule: Q01DX009 (ip), vehicle: water) was 108 % of control and the T/C (dose: 6.0 mg/kg/injection, schedule: Q01DX009 (ip), vehicle: water) was 101 % of control. For the same compound, the T/C (dose: 12.0 mg/kg/injection, schedule: Q01DX009 (ip), vehicle: water) was 123 % of control.

With `COC(=O)C(CSC(c1ccccc1)(c1ccccc1)c1ccccc1)NC(=O)C(CSCc1ccccc1)NC(=O)CCNC(=O)OCc1ccccc1` (configuration not stated) ({Cbz-βAla}-Cys(Bn)-Cys(Trt)-OMe; configuration not given here) the T/C [4] was 104 % of control, the T/C [5] was 96 % of control and the T/C [6] was 103 % of control. The T/C [7] was 98 % of control and the T/C [8] was 97 % of control.

`COC(=O)CC(N)C(=O)O` (configuration not stated) was tested, and the T/C [9] was 115 % of control, the T/C [10] was 95 % of control and the T/C [11] was 109 % of control. For the same compound, the T/C (dose: 200.0 mg/kg/injection, schedule: Q01DX009 (ip), vehicle: saline) was 100 % of control.

In the case of `S=C(Nc1ccc(Cl)c(Cl)c1)N1c2ccccc2-n2cccc2C1c1cccnc1` (configuration not stated), the T/C [4] is reported as 93 % of control and 105 % of control, the T/C [5] is reported as 99 % of control and 91 % of control and the T/C [6] is reported as 98 % of control and 100 % of control. The T/C [7] was 94 % of control and 101 % of control, the T/C [8] was 105 % of control and 110 % of control and the T/C (dose: 400.0 mg/kg/injection, schedule: Q01DX009 (ip), vehicle: Klucel (hydroxypropylcellulose) (HPC)) was 115 % of control.

With `NC(=O)c1ncn2c(=O)n(CCCl)nnc12` the T/C (dose: 3.12 mg/kg/injection, schedule: Q01DX009 (ip), vehicle: saline) was 103 % of control, the T/C (dose: 6.25 mg/kg/injection, schedule: Q01DX009 (ip), vehicle: saline) was 120 % of control and the T/C [9] was 159 % of control. For the same compound, the T/C [12] was 298 % of control.

In the case of `CC(=O)O[C@@H]1[C@@H](O)C2=C3[C@]4(C)[C@@H]1C(C)(C)C(=O)C[C@@H]4[C@]3(O)[C@H](OC(C)=O)[C@@]1(C[C@@H]1C)C2=O`, the T/C [13] is reported as 97 % of control, the T/C [14] is reported as 195 % of control and the T/C [15] is reported as 162 % of control.

With `COc1c2occc2cc2ccc(=O)oc12` the T/C (dose: 8.0 mg/kg/injection, schedule: Q01DX009 (ip), vehicle: saline with Tween-80) was 109 % of control, the T/C (dose: 16.0 mg/kg/injection, schedule: Q01DX009 (ip), vehicle: saline with Tween-80) was 109 % of control and the T/C (dose: 32.0 mg/kg/injection, schedule: Q01DX009 (ip), vehicle: saline with Tween-80) was 96 % of control. For the same compound, the T/C (dose: 64.0 mg/kg/injection, schedule: Q01DX009 (ip), vehicle: saline with Tween-80) was 113 % of control and the T/C (dose: 128.0 mg/kg/injection, schedule: Q01DX009 (ip), vehicle: saline with Tween-80) was 110 % of control.

In the case of `OC1CCCC2CCCNC12` (configuration not stated), the T/C [13] is reported as 104 % of control, the T/C [14] is reported as 100 % of control and the T/C [15] is reported as 152 % of control. The T/C [1] was 96 % of control, the T/C [2] was 99 % of control and the T/C [3] was 95 % of control.

`C=C(C)/C([O-])=N/[N+](C)(C)CC(O)CCCCCCCCCCCC` (configuration not stated) was tested, and the T/C (dose: 12.5 mg/kg/injection, schedule: Q01DX001 (ip), vehicle: saline) was 99 % of control, the T/C (dose: 50.0 mg/kg/injection, schedule: Q01DX001 (ip), vehicle: saline) was 86 % of control and the T/C (dose: 100.0 mg/kg/injection, schedule: Q01DX001 (ip), vehicle: saline) was 92 % of control. The T/C (dose: 200.0 mg/kg/injection, schedule: Q01DX001 (ip), vehicle: saline) was 104 % of control and the T/C (dose: 400.0 mg/kg/injection, schedule: Q01DX001 (ip), vehicle: saline) was 87 % of control.

With `CCN(CC)CCOC(=O)Cc1cccc2c(=O)cc(-c3ccccc3)oc12` the T/C [9] was 109 % of control, the T/C [12] was 105 % of control and the T/C [10] was 105 % of control. For the same compound, the T/C [11] was 101 % of control.

For `COC1CC(CC2CCC(C)C(C(C)C(=O)O)O2)OC2(OC(C)(C3CCC(C)(C4OC(C5OC(O)(CO)C(C)CC5C)CC4C)O3)CC2C)C1C` (configuration not stated), the T/C (dose: 0.31 mg/kg/injection, schedule: Q01DX009 (ip), vehicle: Klucel (hydroxypropylcellulose) (HPC)) was 99 % of control, the T/C (dose: 0.63 mg/kg/injection, schedule: Q01DX009 (ip), vehicle: Klucel (hydroxypropylcellulose) (HPC)) was 94 % of control and the T/C (dose: 1.25 mg/kg/injection, schedule: Q01DX009 (ip), vehicle: Klucel (hydroxypropylcellulose) (HPC)) was 100 % of control. The T/C (dose: 5.0 mg/kg/injection, schedule: Q01DX009 (ip), vehicle: Klucel (hydroxypropylcellulose) (HPC)) was 96 % of control.

In the case of `O=C1c2ccccc2C(=O)c2c3c(cc(NCCNCCO)c21)N(CCO)CCN3`, the T/C (dose: 50.0 mg/kg/injection, schedule: Q01DX009 (ip), vehicle: DMSO) is reported as 108 % of control.

For `CN=C(N)N/N=C(\C)c1ccc2oc3ccc(/C(C)=N/NC(N)=NC)cc3c2c1`, the T/C [15] was 98 % of control and the T/C [1] was 118 % of control.

`[O-][n+]1c(CN2CCCCC2)nc2cccc3c2c1-c1ccccc1-3` was tested, and the T/C [15] was 98 % of control and 100 % of control, the T/C [1] was 98 % of control and 123 % of control and the T/C [2] was 105 % of control and 106 % of control. The T/C [3] was 111 % of control and 116 % of control, the T/C (dose: 200.0 mg/kg/injection, schedule: Q01DX009 (ip), vehicle: saline with Tween-80) was 102 % of control and 118 % of control and the T/C (dose: 400.0 mg/kg/injection, schedule: Q01DX009 (ip), vehicle: saline with Tween-80) was 111 % of control.
